Results: patent publication US20230203060A1 (GENFLEET THERAPEUTICS (SHANGHAI) INC., priority 2020, published 2023)

Assays:
[1] = tested on: A549 cells (KRAS G12S mutant); test: Cell proliferation inhibition experiment, 3D spheroid, CellTiter-Glo, A549; type: cell-based, human; details: Homo sapiens, A549, 120 h, A549 (KRAS G12S mutant) 3D spheroid, 5 days with compound, CellTiter-Glo; read-out: A549 IC50
How it was run: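 IC50 values come from four-parameter fits of proliferation inhibition, measured by CellTiter-Glo after 5-day compound exposure. Spheroids of H358 (800 cells) or A549 (400 cells) were formed overnight in 2% FBS medium; DMSO held at 0.1%, doses spaced 3.16-fold.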

[2] = tested on: phosphorylated ERK downstream of KRAS G12C in MIA PaCa2 cells; test: Cell p-ERK detection experiment (HTRF) in MIA PaCa2; type: cell-based, human; details: Homo sapiens, MIA PaCa-2, 2 h, MIA PaCa2 cells, 2 hours with compound, Advance ERK phospho-T202/Y204 HTRF kit; read-out: p-ERK IC50
How it was run: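 Phospho-ERK (T202/Y204) measured by HTRF after 30 min lysis and 4 h antibody incubation in MIA PaCa2 (KRAS G12C) cells, seeded at 2.5E4 per well and treated 2 h with compounds in 3.16-fold steps, final DMSO 0.1%. IC50 from a four-parameter fit of percent inhibition relative to DMSO and blank wells.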

Row | SMILES | IC50 [1] [µM] | IC50 [2] [µM]
1 | C=CC(=O)N1CCN2C(=O)c3c(N4CC(N5CCN(C)CC5)CC4(C)C)nc(-c4ccccc4F)c(F)c3OC[C@H]2C1 (stereo partly drawn) [Z474, (6aR)-8-acryloyl-1-(2,2-dimethyl-4-(4-methylpiperazin-1-yl)pyrrolidin-1-yl)-4-fluoro-3-(2-fluorophenyl)-6,6a,7,8,9,10-hexahydro-12H-pyrazino[2,1-c]pyrido[3,4-f][1,4]oxazepin-12-one] | 6.71 | 0.09
2 | C=CC(=O)N1CCN2C(=O)c3c(N4CC(N5CCC(F)(F)C5)CC4(C)C)nc(-c4ccccc4F)c(Cl)c3OC[C@H]2C1 (stereo partly drawn) [Z532, (6aR)-8-acryloyl-4-chloro-1-(3,3-difluoro-5′,5′-dimethyl-[1,3′-bipyrrolidin]-1′-yl)-3-(2-fluorophenyl)-6,6a,7,8,9,10-hexahydro-12H-pyrazino[2,1-c]pyrido[3,4-f][1,4]oxazepin-12-one] | 3.17 | 0.085
3 | C=CC(=O)N1CCN2C(=O)c3c(N4C[C@@H](N(C)CCO)CC4(C)C)nc(-c4ccccc4F)c(Cl)c3OC[C@H]2C1 (single isomer, unassigned) [Z658-1] | 2.97 | 0.031
4 | C=CC(=O)N1CCN2C(=O)c3c(N4CC(NC)CC4(C)C)nc(-c4ccccc4F)c(Cl)c3OC[C@H]2C1 (stereo partly drawn) [Z661, (6aR)-8-acryloyl-4-chloro-1-(2,2-dimethyl-4-(methylamino)pyrrolidin-1-yl)-3-(2-fluorophenyl)-6,6a,7,8,9,10-hexahydro-12H-pyrazino[2,1-c]pyrido[3,4-f][1,4]oxazepin-12-one] | 2.66 | 0.029
5 | C=CC(=O)N1CCN2C(=O)c3c(N4C[C@@H](N(C)C)CC4(C)C)nc(-c4cccc(C)c4F)c(Cl)c3OC[C@H]2C1 (single isomer, unassigned) [Z472-1] | 1.74 | 0.189
6 | C=CC(=O)N1CCN2C(=O)c3c(N4C[C@@H](N(C)CCF)CC4(C)C)nc(-c4ccccc4F)c(Cl)c3OC[C@H]2C1 (single isomer, unassigned) [Z660-1] | 3.25 | 0.019
7 | C=CC(=O)N1CCN2C(=O)c3c(N4C[C@@H](N5CC(F)C5)CC4(C)C)nc(-c4ccccc4F)c(Cl)c3OC[C@H]2C1 [Z480-1, (R)-8-acryloyl-4-chloro-1-((S)-4-(3-fluoroazetidin-1-yl)-2,2-dimethylpyrrolidin-1-yl)-3-(2-fluorophenyl)-6,6a,7,8,9,10-hexahydro-12H-pyrazino[2,1-c]pyrido[3,4-f][1,4]oxazepin-12-one] | 3.98 | 0.013
8 | C=CC(=O)N1CCN2C(=O)c3c(N4C[C@H](N(C)CCOC)CC4(C)C)nc(-c4ccccc4F)c(Cl)c3OC[C@H]2C1 (single isomer, unassigned) [Z406-1] | 2.12 | 0.073
9 | C=CC(=O)N1CCN2C(=O)c3c(N4C[C@@H](N(C)CC(F)(F)F)CC4(C)C)nc(-c4ccccc4F)c(Cl)c3OC[C@H]2C1 (single isomer, unassigned) [Z491] | 4.53 | 0.027
10 | C=CC(=O)N1CCN2C(=O)c3c(N4CC(N(C)CC(F)(F)F)CC4(C)C)nc(-c4ccccc4F)c(Cl)c3OC[C@H]2C1 (mixture of isomers) [Z491a, (6aR)-8-acryloyl-4-chloro-1-(2,2-dimethyl-4-(methyl(2,2,2-trifluoroethyl)amino)pyrrolidin-1-yl)-3-(2-fluorophenyl)-6,6a,7,8,9,10-hexahydro-12H-pyrazino[2,1-c]pyrido[3,4-f][1,4]oxazepin-12-one] | 4.03 | 0.037
11 | C=CC(=O)N1CCN2C(=O)c3c(NC45CC(C4)C5)nc(-c4c(O)cccc4F)c(Cl)c3OC[C@H]2C1 [Z41, (6aR)-8-acryloyl-1-(bicyclo [1.1.1]pentan-1-ylamino)-4-chloro-3-(2-fluoro-6-hydroxyphenyl)-6,6a,7,8,9,10-hexahydro-12H-pyrazino[2,1-c]pyrido[3,4-f][1,4]oxazepin-12-one] | 1.22 | 0.322
12 | C=CC(=O)N1CCN2C(=O)c3c(N4C[C@@H](N5CC(C#N)C5)CC4(C)C)nc(-c4ccccc4F)c(Cl)c3OC[C@H]2C1 (single isomer, unassigned) [Z637-2] | 2.52 | 0.068
13 | C=CC(=O)N1CCN2C(=O)c3c(N4C[C@H](N5CCN(C)CC5)CC4(C)C)nc(-c4c(O)cccc4F)c(Cl)c3OC[C@H]2C1 (single isomer, unassigned) [Z469-2] | 8.46 | 0.03
14 | C=CC(=O)N1CCN2C(=O)c3c(N4CCN(C)C[C@@H]4C)nc(-c4c(F)cccc4OC)c(F)c3OC[C@H]2C1 [Z451, (6aR)-8-acryloyl-1-((S)-2,4-dimethylpiperazin-1-yl)-4-fluoro-3-(2-fluoro-6-methoxyphenyl)-6,6 a,7,8,9,10-hexahydro-12H-pyrazino[2,1-c]pyrido[3,4-f][1,4]oxazepin-12 (6 aH)-one] | 5.72 | 1.48
15 | C=CC(=O)N1CCN2C(=O)c3c(N4CCN(C)C[C@@H]4C)nc(-c4c(O)cccc4F)c(Cl)c3OC[C@H]2C1 [Z51, (6aR)-8-acryloyl-4-chloro-1-((S)-2,4-dimethylpiperazin-1-yl)-3-(2-fluoro-6-hydroxyphenyl)-6,6a,7,8,9,10-hexahydro-12H-pyrazino[2,1-c]pyrido[3,4-f][1,4]oxazepin-12-one] | > 5 | 0.073
16 | C=CC(=O)N1CCN2C(=O)c3c(N4CCC(OC)C4(C)C)nc(-c4c(N)cccc4F)c(Cl)c3OC[C@H]2C1 (stereo partly drawn) [Z506, (6aR)-8-acryloyl-3-(2-amino-6-fluorophenyl)-4-chloro-1-(3-methoxy-2,2-dimethylpyrrolidin-1-yl)-6,6a,7,8,9,10-hexahydro-12H-pyrazino[2,1-c]pyrido[3,4-f][1,4]oxazepin-12-one] | 9.19 | 0.011
17 | C=CC(=O)N1CCN2C(=O)c3c(N4C[C@@H](N5CCN(C)CC5)CC4(C)C)nc(-c4c(F)cccc4Cl)c(Cl)c3OC[C@H]2C1 (single isomer, unassigned) [Z635-1] | 2.28 | 0.014
18 | C=CC(=O)N1CCN2C(=O)c3c(N4CCOC(C)(C)C4)nc(-c4c(O)cccc4F)c(Cl)c3OC[C@H]2C1 [Z37, (6aR)-8-acryloyl-4-chloro-1-(2,2-dimethylmorpholino)-3-(2-fluoro-6-hydroxyphenyl)-6,6a,7,8,9,10-hexahydro-12H-pyrazino[2,1-c]pyrido[3,4-f][1,4]oxazepin-12-one] | > 30 | 0.145
19 | C=CC(=O)N1CCN2C(=O)c3c(N4CCN(C)[C@@H](C)[C@@H]4C)nc(-c4ccccc4F)c(Cl)c3OC[C@H]2C1 [Z653, (R)-8-acryloyl-4-chloro-3-(2-fluorophenyl)-1-((2S,3S)-2,3,4-trimethylpiperazin-1-yl)-6,6a,7,8,9,10-hexahydro-12H-pyrazino[2,1-c]pyrido[3,4-f][1,4]oxazepin-12 (6aH)-one] | 9.31 | 0.184
20 | C=CC(=O)N1CCN2C(=O)c3c(NC(C)(C)C)nc(-c4ccccc4F)c(Cl)c3OC[C@H]2C1 [Z457, (R)-8-acryloyl-1-(tert-butylamino)-4-chloro-3-(2-fluorophenyl)-6,6a,7,8,9,10-hexahydro-12H-pyrazino[2,1-c]pyrido[3,4-f][1,4]oxazepin-12-one] | 2.95 | 0.397
